Test results: PubChem BioAssay AID200 (DTP/NCI, 2004)
Several values for one entry are separate records, joined by “and”; a condition that tells them apart may be missing. Equal values may be shown once. Toxic doses and inconclusive results are not listed. *1 amine or outer side, *2 acyl side, *3 side chain or, on linkers, in order; H or OH if unused. Where a SMILES comes first, the peptide text is derived from it. Bridges are numbered along the chain shown (N, C = ends). Roman numbers before positions name the chains, in order. [ ]: non-standard residue; d: D form. Actinocin(1to9) = Cc1c2oc3c(C)ccc(C(=O)[*:2])c3nc-2c(C(=O)[*:1])c(N)c1=O; X1 = COC(=O)CCN(CC(=O)[*:2])[*:1]; NMeA = CN[CH](C)C(=O)O

Test system: B6C3F1 mice, B16 melanoma ip, median survival T/C
Test: NCI In Vivo Anticancer Drug Screen. Data for tumor model B16 Melanoma (intraperitoneal) in B6C3F1 mice
Conditions: endpoint: median survival time, higher = longer survival
Method in brief: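 Transplantable tumor in mice; treated vs vehicle control groups; survival or tumor size measured; value = T/C ratio.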

[1] = dose: 50.0 mg/kg/injection, schedule: Q01DX009 (ip), vehicle: saline
[2] = dose: 100.0 mg/kg/injection, schedule: Q01DX009 (ip), vehicle: saline with Tween-80
[3] = dose: 100.0 mg/kg/injection, schedule: Q01DX009 (ip), vehicle: saline
[4] = dose: 200.0 mg/kg/injection, schedule: Q01DX009 (ip), vehicle: saline with Tween-80
[5] = dose: 200.0 mg/kg/injection, schedule: Q01DX009 (ip), vehicle: saline
[6] = dose: 400.0 mg/kg/injection, schedule: Q01DX009 (ip), vehicle: saline with Tween-80
[7] = dose: 12.5 mg/kg/injection, schedule: Q01DX009 (ip), vehicle: saline
[8] = dose: 100.0 mg/kg/injection, schedule: Q01DX009 (ip), vehicle: Klucel (hydroxypropylcellulose) (HPC)
[9] = dose: 6.25 mg/kg/injection, schedule: Q01DX009 (ip), vehicle: Klucel (hydroxypropylcellulose) (HPC)
[10] = dose: 12.5 mg/kg/injection, schedule: Q01DX009 (ip), vehicle: Klucel (hydroxypropylcellulose) (HPC)
[11] = dose: 25.0 mg/kg/injection, schedule: Q01DX009 (ip), vehicle: Klucel (hydroxypropylcellulose) (HPC)
[12] = dose: 50.0 mg/kg/injection, schedule: Q01DX009 (ip), vehicle: Klucel (hydroxypropylcellulose) (HPC)
[13] = dose: 12.5 mg/kg/injection, schedule: Q01DX009 (ip), vehicle: saline with Tween-80
[14] = dose: 25.0 mg/kg/injection, schedule: Q01DX009 (ip), vehicle: saline with Tween-80
[15] = dose: 50.0 mg/kg/injection, schedule: Q01DX009 (ip), vehicle: saline with Tween-80
[16] = dose: 3.12 mg/kg/injection, schedule: Q01DX009 (ip), vehicle: Klucel (hydroxypropylcellulose) (HPC)

## NC(CS)C(=O)O (stereo unspecified)
[1]
  T/C: 93 % of control and 104 % of control
[2]
  T/C: 107 % of control
[3]
  T/C: 93 % of control and 103 % of control
[4]
  T/C: 109 % of control
[5]
  T/C: 93 % of control
[6]
  T/C: 107 % of control
dose: 400.0 mg/kg/injection, schedule: Q01DX009 (ip), vehicle: saline
  T/C: 116 % of control and 92 % of control
dose: 800.0 mg/kg/injection, schedule: Q01DX009 (ip), vehicle: saline with Tween-80
  T/C: 100 % of control

## NNC(=S)N/N=C/c1ccccn1
dose: 1.56 mg/kg/injection, schedule: Q01DX009 (ip), vehicle: saline
  T/C: 91 % of control
dose: 1.56 mg/kg/injection, schedule: Q01DX009 (ip), vehicle: suspension in saline
  T/C: 117 % of control
dose: 3.12 mg/kg/injection, schedule: Q01DX009 (ip), vehicle: saline
  T/C: 109 % of control
dose: 3.12 mg/kg/injection, schedule: Q01DX009 (ip), vehicle: suspension in saline
  T/C: 113 % of control
dose: 6.25 mg/kg/injection, schedule: Q01DX009 (ip), vehicle: saline
  T/C: 94 % of control
dose: 6.25 mg/kg/injection, schedule: Q01DX009 (ip), vehicle: suspension in saline
  T/C: 102 % of control
[7]
  T/C: 105 % of control
dose: 12.5 mg/kg/injection, schedule: Q01DX009 (ip), vehicle: suspension in saline
  T/C: 113 % of control
dose: 25.0 mg/kg/injection, schedule: Q01DX009 (ip), vehicle: saline
  T/C: 98 % of control

## COC(=O)CCN1CC(=O)N(C)C(C)C(=O)OC(C)C(NC(=O)c2c3nc4c(C(=O)NC5C(=O)NC(C(C)C)C(=O)N6CCCC6C(=O)N(CCC(=O)OC)CC(=O)N(C)C(C)C(=O)OC5C)ccc(C)c4oc-3c(C)c(=O)c2N)C(=O)NC(C(C)C)C(=O)N2CCCC2C1=O (stereo unspecified) (I: TVP[X1][NMeA] / II: TVP[X1][NMeA]; ester I:1-I:C, II:1-II:C; linker I:N-II:N via Actinocin(1to9); configuration not given here)
dose: 0.25 mg/kg/injection, schedule: Q04DX003 (ip), vehicle: saline + alcohol
  T/C: 109 % of control
dose: 0.5 mg/kg/injection, schedule: Q04DX003 (ip), vehicle: saline + alcohol
  T/C: 105 % of control
dose: 1.0 mg/kg/injection, schedule: Q04DX003 (ip), vehicle: saline + alcohol
  T/C: 98 % of control and 104 % of control
dose: 2.0 mg/kg/injection, schedule: Q04DX003 (ip), vehicle: saline + alcohol
  T/C: 118 % of control and 102 % of control
dose: 4.0 mg/kg/injection, schedule: Q04DX003 (ip), vehicle: saline + alcohol
  T/C: 114 % of control
dose: 8.0 mg/kg/injection, schedule: Q04DX003 (ip), vehicle: saline + alcohol
  T/C: 121 % of control

## CSCCC(NC(=O)CNC(=O)CNC(=O)OCc1ccccc1)C(=O)O (stereo unspecified) (HELM PEPTIDE1{[O=C(OCc1ccccc1)[*:2]].G.G.[CSCCC(N[*:1])C(=O)O]}$$$$V2.0)
[8]
  T/C: 100 % of control
dose: 200.0 mg/kg/injection, schedule: Q01DX009 (ip), vehicle: Klucel (hydroxypropylcellulose) (HPC)
  T/C: 103 % of control
dose: 400.0 mg/kg/injection, schedule: Q01DX009 (ip), vehicle: Klucel (hydroxypropylcellulose) (HPC)
  T/C: 108 % of control

## COc1ccc2[nH]c3c(c2c1)CCNC3CC(C)CCC=C(C)C (stereo unspecified)
[9]
  T/C: 99 % of control
[10]
  T/C: 88 % of control
[11]
  T/C: 97 % of control
[12]
  T/C: 102 % of control
[8]
  T/C: 105 % of control

## CCCCCCCCCCCCCCCCNc1cccc2ccccc12
[13]
  T/C: 96 % of control
[14]
  T/C: 95 % of control
[15]
  T/C: 94 % of control and 97 % of control
[2]
  T/C: 92 % of control

## O=C(O)COc1ccc(-c2ccc(Br)cc2)cc1
[14]
  T/C: 95 % of control
[15]
  T/C: 98 % of control
[2]
  T/C: 87 % of control
[4]
  T/C: 96 % of control
[6]
  T/C: 94 % of control

## COC(=O)c1[nH]c(=O)[nH]c(=O)c1F
[1]
  T/C: 98 % of control
[3]
  T/C: 94 % of control
[5]
  T/C: 100 % of control

## O=C(O)CNC(=O)C(Cc1ccccc1)NC(=O)OCc1ccccc1 (stereo unspecified) (HELM PEPTIDE1{[O=C(OCc1ccccc1)[*:2]].[O=C(C(Cc1ccccc1)N[*:1])[*:2]].G}$$$$V2.0)
[11]
  T/C: 94 % of control
[12]
  T/C: 102 % of control
[8]
  T/C: 86 % of control and 94 % of control

## Cc1c2ccncc2c(COC2OC(CO)C(O)C2O)c2c3ccccc3n(C)c12 (stereo unspecified)
[7]
  T/C: 123 % of control
[3]
  T/C: 98 % of control
[5]
  T/C: 121 % of control

## CN1CCc2c(c3ccccc3c3ccccc23)C1
[16]
  T/C: 116 % of control and 94 % of control
[9]
  T/C: 87 % of control and 99 % of control
[10]
  T/C: 88 % of control and 102 % of control and 106 % of control
[11]
  T/C: 90 % of control and 102 % of control
[12]
  T/C: 116 % of control and 97 % of control and 102 % of control
[8]
  T/C: 118 % of control and 92 % of control

## O=C1C=C(N2CC2)C(=O)C(N2CC2)=C1N1CC1
dose: 6.25 micrograms/kg/injection, schedule: Q01DX009 (ip), vehicle: saline
  T/C: 111 % of control
dose: 12.5 micrograms/kg/injection, schedule: Q01DX009 (ip), vehicle: saline
  T/C: 95 % of control
dose: 25.0 micrograms/kg/injection, schedule: Q01DX009 (ip), vehicle: saline
  T/C: 113 % of control
dose: 50.0 micrograms/kg/injection, schedule: Q01DX009 (ip), vehicle: saline
  T/C: 165 % of control
dose: 100.0 micrograms/kg/injection, schedule: Q01DX009 (ip), vehicle: saline
  T/C: 157 % of control

## CN1C(=O)C(=Cc2ccc(O)cc2)C(=O)N(C)C1=O
[13]
  T/C: 97 % of control
[14]
  T/C: 99 % of control
[15]
  T/C: 101 % of control
[2]
  T/C: 104 % of control
[4]
  T/C: 94 % of control

## Cc1noc(N)c1N
dose: 12.0 mg/kg/injection, schedule: Q01DX009 (ip), vehicle: water
  T/C: 94 % of control
dose: 25.0 mg/kg/injection, schedule: Q01DX009 (ip), vehicle: water
  T/C: 100 % of control
dose: 50.0 mg/kg/injection, schedule: Q01DX009 (ip), vehicle: water
  T/C: 106 % of control
dose: 100.0 mg/kg/injection, schedule: Q01DX009 (ip), vehicle: water
  T/C: 100 % of control
dose: 200.0 mg/kg/injection, schedule: Q01DX009 (ip), vehicle: water
  T/C: 96 % of control
dose: 400.0 mg/kg/injection, schedule: Q01DX009 (ip), vehicle: water
  T/C: 90 % of control

## O=NN(CCF)C(=O)NC1CCCCC1
[16]
  T/C: 116 % of control
[9]
  T/C: 166 % of control
dose: 12.0 mg/kg/injection, schedule: Q01DX001 (ip), vehicle: Klucel (hydroxypropylcellulose) (HPC)
  T/C: 121 % of control
[10]
  T/C: 333 % of control
dose: 25.0 mg/kg/injection, schedule: Q01DX001 (ip), vehicle: Klucel (hydroxypropylcellulose) (HPC)
  T/C: 162 % of control
dose: 100.0 mg/kg/injection, schedule: Q01DX001 (ip), vehicle: Klucel (hydroxypropylcellulose) (HPC)
  T/C: 216 % of control

## Cc1[nH]ccc2c(C)c3nc4ccccc4c3cc12
[11]
  T/C: 159 % of control

## CNC(=O)Oc1ccc[nH]c1=O
dose: 16.0 mg/kg/injection, schedule: Q01DX009 (ip), vehicle: saline with Tween-80
  T/C: 101 % of control
dose: 32.0 mg/kg/injection, schedule: Q01DX009 (ip), vehicle: saline with Tween-80
  T/C: 100 % of control
dose: 64.0 mg/kg/injection, schedule: Q01DX009 (ip), vehicle: saline with Tween-80
  T/C: 101 % of control
dose: 128.0 mg/kg/injection, schedule: Q01DX009 (ip), vehicle: saline with Tween-80
  T/C: 100 % of control
dose: 256.0 mg/kg/injection, schedule: Q01DX009 (ip), vehicle: saline with Tween-80
  T/C: 95 % of control

## C1CNCCN1
dose: 25.0 mg/kg/injection, schedule: Q01DX009 (ip), vehicle: suspension in saline
  T/C: 103 % of control
dose: 50.0 mg/kg/injection, schedule: Q01DX009 (ip), vehicle: suspension in saline
  T/C: 111 % of control
dose: 100.0 mg/kg/injection, schedule: Q01DX009 (ip), vehicle: suspension in saline
  T/C: 109 % of control
dose: 200.0 mg/kg/injection, schedule: Q01DX009 (ip), vehicle: suspension in saline
  T/C: 111 % of control

## CN=C(N)N/N=C(\C)c1ccc2c(c1)Cc1ccccc1-2
[13]
  T/C: 111 % of control
[14]
  T/C: 118 % of control
[15]
  T/C: 119 % of control
[2]
  T/C: 122 % of control

## CCOC(=O)Nc1cc2c(c(N)n1)N=C(c1ccccc1)CN2
dose: 1.25 mg/kg/injection, schedule: Q01DX009 (ip), vehicle: saline with Tween-80
  T/C: 96 % of control
dose: 2.5 mg/kg/injection, schedule: Q01DX009 (ip), vehicle: saline with Tween-80
  T/C: 102 % of control
dose: 5.0 mg/kg/injection, schedule: Q01DX009 (ip), vehicle: saline with Tween-80
  T/C: 107 % of control

## O=C(O)CNC(=O)c1ccccc1
dose: 40.0 mg/kg/injection, schedule: Q01DX009 (ip), vehicle: saline with Tween-80
  T/C: 96 % of control
dose: 80.0 mg/kg/injection, schedule: Q01DX009 (ip), vehicle: saline with Tween-80
  T/C: 95 % of control
